Consider one substance from patent publication US20250188076A1, “SOLID STATE FORMS OF TOLEBRUTINIB AND OF TOLEBRUTINIB SALTS” (TEVA PHARMACEUTICAL INTERNATIONAL GMBH, priority 2022, published 2025).

The nature of this data set: Solubility comparison in water and aqueous acetate buffer at pH 4.5.

The term solubility denotes how much of the substance goes into solution per volume.

Tolebrutinib [Tolebrutinib Form CSI] registered a solubility of less than 0.2 mg/mL.
